PubChem BioAssay AID330 (DTP/NCI, 2004)
Where “and” joins values, the source holds several entries; their conditions need not be identical. Equal values may be shown once. Inconclusive results and toxic doses are left out. How the source made its calls: active means survival T/C of 150% or more; inactive means T/C below 125% in these data.

Test system: P388 leukemia ip, CD2F1 mice, survival T/C
Assay: NCI In Vivo Anticancer Drug Screen. Data for tumor model P388 Leukemia (intraperitoneal) in CD2F1 (CDF1) mice
Details: endpoint: median survival time, higher = longer survival
Summary of the method: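 Mice carrying the transplanted tumor received test compound or vehicle. Survival was recorded in each group, and the value is the treated-group measurement divided by that of the vehicle-treated control group.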

[1] = dose: 60.0 mg/kg/injection, schedule: Q01DX005 (ip), vehicle: Klucel (hydroxypropylcellulose) (HPC)
[2] = dose: 120.0 mg/kg/injection, schedule: Q01DX005 (ip), vehicle: Klucel (hydroxypropylcellulose) (HPC)
[3] = dose: 240.0 mg/kg/injection, schedule: Q01DX005 (ip), vehicle: Klucel (hydroxypropylcellulose) (HPC)
[4] = dose: 50.0 mg/kg/injection, schedule: Q01DX005 (ip), vehicle: Klucel (hydroxypropylcellulose) (HPC)
[5] = dose: 100.0 mg/kg/injection, schedule: Q01DX005 (ip), vehicle: Klucel (hydroxypropylcellulose) (HPC)
[6] = dose: 200.0 mg/kg/injection, schedule: Q01DX005 (ip), vehicle: Klucel (hydroxypropylcellulose) (HPC)
[7] = dose: 50.0 mg/kg/injection, schedule: Q01DX005 (ip), vehicle: saline with Tween-80
[8] = dose: 100.0 mg/kg/injection, schedule: Q01DX005 (ip), vehicle: saline with Tween-80
[9] = dose: 60.0 mg/kg/injection, schedule: Q01DX005 (ip), vehicle: saline with Tween-80
[10] = dose: 120.0 mg/kg/injection, schedule: Q01DX005 (ip), vehicle: saline with Tween-80
[11] = dose: 240.0 mg/kg/injection, schedule: Q01DX005 (ip), vehicle: saline with Tween-80

Measured: T/C

COC(=O)C1=COC(OC2OC(CO)C(O)C(O)C2O)C2C(C)C(O)C(OC(=O)/C=C/c3ccc(OC)cc3)C12 (configuration not stated)
inactive: dose: 9.38 mg/kg/injection, schedule: Q01DX005 (ip), vehicle: Klucel (hydroxypropylcellulose) (HPC) 96 % of control | dose: 37.5 mg/kg/injection, schedule: Q01DX005 (ip), vehicle: Klucel (hydroxypropylcellulose) (HPC) 88 % of control | [1] 93 % of control | dose: 75.0 mg/kg/injection, schedule: Q01DX005 (ip), vehicle: Klucel (hydroxypropylcellulose) (HPC) 88 % of control | [2] 93 % of control | [3] 86 % of control

COc1ccc2nc(C)cc(N/N=C/c3ccc(N(CCCl)CCCl)cc3)c2c1
inactive: dose: 0.78 mg/kg/injection, schedule: Q01DX009 (ip), vehicle: Klucel (hydroxypropylcellulose) (HPC) 105 % of control | dose: 1.56 mg/kg/injection, schedule: Q01DX009 (ip), vehicle: Klucel (hydroxypropylcellulose) (HPC) 103 % of control | dose: 3.12 mg/kg/injection, schedule: Q01DX009 (ip), vehicle: Klucel (hydroxypropylcellulose) (HPC) 90 % of control and 98 % of control | dose: 6.25 mg/kg/injection, schedule: Q01DX009 (ip), vehicle: Klucel (hydroxypropylcellulose) (HPC) 90 % of control | dose: 25.0 mg/kg/injection, schedule: Q01DX009 (ip), vehicle: Klucel (hydroxypropylcellulose) (HPC) 90 % of control

O=C1CCCC2=C1CC1=C(CCCC1=O)N2
inactive: [4] 94 % of control | [5] 96 % of control | [6] 90 % of control

C/C(=N\NC(=S)Nc1ccc(S(N)(=O)=O)cc1)c1ccccn1
inactive: dose: 12.5 mg/kg/injection, schedule: Q01DX005 (ip), vehicle: saline with Tween-80 94 % of control | dose: 25.0 mg/kg/injection, schedule: Q01DX005 (ip), vehicle: saline with Tween-80 108 % of control | [7] 119 % of control | [8] 96 % of control

Nc1nc(N)c2ncn(Cc3c(Cl)cccc3Cl)c2n1
inactive: dose: 50.0 mg/kg/injection, schedule: Q01DX005 (ip), vehicle: distilled water + alcohol 95 % of control | dose: 100.0 mg/kg/injection, schedule: Q01DX005 (ip), vehicle: distilled water + alcohol 97 % of control | dose: 200.0 mg/kg/injection, schedule: Q01DX005 (ip), vehicle: distilled water + alcohol 93 % of control

CC(=O)c1c(OCC(O)CNC(C)C)ccc2c(C)cc(=O)oc12 (configuration not stated)
inactive: [7] 100 % of control | [8] 92 % of control

CC1CCC(C(C)(C)c2ccccc2)C(OC(=O)C2C3CCC=C3C3CC(C)(C)CC32)C1 (configuration not stated)
inactive: dose: 21.25 mg/kg/injection, schedule: Q01DX005 (ip), vehicle: saline with Tween-80 99 % of control | dose: 42.5 mg/kg/injection, schedule: Q01DX005 (ip), vehicle: saline with Tween-80 96 % of control | dose: 85.0 mg/kg/injection, schedule: Q01DX005 (ip), vehicle: saline with Tween-80 100 % of control

COc1ccc(C(C#N)C(=O)C(=O)Nc2ccc(Cl)cc2C)cc1OC (configuration not stated)
inactive: [9] 100 % of control | [10] 100 % of control | [11] 105 % of control

NC(=S)N/N=C\c1nccc2ncccc12
inactive: dose: 6.25 mg/kg/injection, schedule: Q04DX002 (ip), vehicle: saline with Tween-80 113 % of control | dose: 12.5 mg/kg/injection, schedule: Q04DX002 (ip), vehicle: saline with Tween-80 124 % of control

Cc1ccc2cccc(OC(=O)Nc3cccc(C(F)(F)F)c3)c2n1
inactive: [1] 101 % of control | [2] 107 % of control | [3] 105 % of control

Cc1cc(NC(=S)SCc2ccc3c(c2)OCO3)ccc1Cl
inactive: dose: 50.0 mg/kg/injection, schedule: Q01DX009 (ip), vehicle: Klucel (hydroxypropylcellulose) (HPC) 112 % of control | dose: 50.0 mg/kg/injection, schedule: Q01DX009 (ip), vehicle: suspension in saline 91 % of control | dose: 100.0 mg/kg/injection, schedule: Q01DX009 (ip), vehicle: Klucel (hydroxypropylcellulose) (HPC) 122 % of control | dose: 100.0 mg/kg/injection, schedule: Q01DX009 (ip), vehicle: suspension in saline 94 % of control | dose: 200.0 mg/kg/injection, schedule: Q01DX009 (ip), vehicle: Klucel (hydroxypropylcellulose) (HPC) 114 % of control | dose: 200.0 mg/kg/injection, schedule: Q01DX009 (ip), vehicle: suspension in saline 90 % of control

O=C1CSC(c2ccc(F)cc2F)N1c1nncs1 (configuration not stated)
inactive: [9] 92 % of control | [10] 91 % of control

Cc1ccnc(NC(N)=O)n1
inactive: dose: 50.0 mg/kg/injection, schedule: Q01DX009 (ip), vehicle: saline with Tween-80 103 % of control | dose: 100.0 mg/kg/injection, schedule: Q01DX009 (ip), vehicle: saline with Tween-80 103 % of control | dose: 200.0 mg/kg/injection, schedule: Q01DX009 (ip), vehicle: saline with Tween-80 101 % of control

COc1ccc2c(ccc3c(N)ncnc32)c1
inactive: dose: 100.0 mg/kg/injection, schedule: Q04DX002 (ip), vehicle: saline with Tween-80 92 % of control | dose: 200.0 mg/kg/injection, schedule: Q04DX002 (ip), vehicle: saline with Tween-80 103 % of control

COc1cc2ccncc2cc1Oc1c(OC)c(OC)cc2ccncc12
inactive: [1] 100 % of control | [2] 90 % of control | [3] 100 % of control

CC1[C@@]2(CCC(C)(C)O2)O[C@@H]2C=C3C4CCC5Cc6nc7c(nc6C[C@@]5(C)C4C[C@H](O)[C@@]3(C)[C@]12O)CC1CCC2C3=C[C@H]4O[C@@]5(O[C@@](C)(CO)C[C@@H]5O)C(C)[C@@]4(O)[C@]3(C)[C@@H](O)CC2[C@]1(C)C7 (some centres not stated)
inactive: dose: 12.5 micrograms/kg/injection, schedule: Q01DX009 (ip), vehicle: saline + alcohol 109 % of control | dose: 25.0 micrograms/kg/injection, schedule: Q01DX009 (ip), vehicle: saline + alcohol 98 % of control | dose: 50.0 micrograms/kg/injection, schedule: Q01DX009 (ip), vehicle: saline + alcohol 107 % of control | dose: 100.0 micrograms/kg/injection, schedule: Q01DX009 (ip), vehicle: saline + alcohol 107 % of control

COc1ccc2c(c1OC)CN1CCc3cc4c(cc3C1C2)OCO4 (configuration not stated)
inactive: [4] 105 % of control and 91 % of control | [5] 100 % of control and 94 % of control | [6] 96 % of control and 94 % of control

COc1cc2c(c(OC)c1OC)-c1cc3c(cc1C(OC1OC4COC(c5cccs5)OC4C(O)C1O)C1COC(=O)C1C2)OCO3 (configuration not stated)
inactive: dose: 14.5 mg/kg/injection, schedule: Q01DX005 (ip), vehicle: Klucel (hydroxypropylcellulose) (HPC) 101 % of control | dose: 29.0 mg/kg/injection, schedule: Q01DX005 (ip), vehicle: Klucel (hydroxypropylcellulose) (HPC) 99 % of control | dose: 58.0 mg/kg/injection, schedule: Q01DX005 (ip), vehicle: Klucel (hydroxypropylcellulose) (HPC) 94 % of control | dose: 116.0 mg/kg/injection, schedule: Q01DX005 (ip), vehicle: Klucel (hydroxypropylcellulose) (HPC) 90 % of control

CC(=O)Oc1cccc2c1C(=O)C1CC=CC(OC(C)=O)C1C2=O (configuration not stated)
inactive: [1] 100 % of control | [2] 100 % of control | [3] 100 % of control

Cc1nc2c(cc1C#N)C(NCCO)Oc1ccccc1-2 (configuration not stated)
inactive: [9] 97 % of control | [10] 97 % of control | [11] 99 % of control
